The numbers were not newly measured in publication PMC6311893, “Computational prediction of plasma protein binding of cyclic peptides from small molecule experimental data using sparse modeling techniques” (BMC Bioinformatics, 2018), which cites them from elsewhere.

The first data set relates to plasma protein. To be noted: fraction bound to plasma protein; small molecule dataset, sheet 1-SM (Set Dte = test, Dtr = training); ref Ingle et al.; cited from earlier work.
Turning to `O=C(O)Cc1ccccc1Nc1c(Cl)cccc1Cl` [Diclofenac], the “PPB (fb)” value is on record as 0.995.

As to `CCC(C)(C)NCC(O)COc1ccccc1C(=O)CCc1ccccc1` (centres unmarked) [Diprafenone], the “PPB (fb)” value is 0.98.

In the case of `CC(=O)O[C@@]12CO[C@@H]1C[C@H](O)[C@@]1(C)C(=O)[C@H](O)C3=C(C)[C@@H](OC(=O)[C@H](O)[C@@H](NC(=O)OC(C)(C)C)c4ccccc4)C[C@@](O)([C@@H](OC(=O)c4ccccc4)[C@H]21)C3(C)C` [Docetaxel], the “PPB (fb)” value is recorded as 0.96.

Take `C[C@H](N[C@@H](CCc1ccccc1)C(=O)O)C(=O)N1CCC[C@H]1C(=O)O` [Enalaprilat]: the “PPB (fb)” value is recorded as 0.46.

As to `CCNCC(O)c1cccc(O)c1` (centres unmarked) [Etilefrine], the “PPB (fb)” value is listed as 0.24.

Regarding `O=C(NCC1CCCCN1)c1cc(OCC(F)(F)F)ccc1OCC(F)(F)F` (centres unmarked) [Flecainide], the “PPB (fb)” value was 0.5.

Turning to `Nc1nc(=O)[nH]cc1F` [Flucytosine], the “PPB (fb)” value is reported as 0.02.

As for `O=P(O)(O)OC(Cn1cncn1)(Cn1cncn1)c1ccc(F)cc1F` [Fosfluconazole], the “PPB (fb)” value is given as 0.96.

Turning to `O=C(O)[C@@H]1C[C@@H](C2CCCCC2)CN1C(=O)CP(=O)(O)CCCCc1ccccc1` [Fosinoprilat], the “PPB (fb)” value is given as 0.99.

Turning to `CN[C@@H]1CCc2[nH]c3ccc(C(N)=O)cc3c2C1` [Frovatriptan], the “PPB (fb)” value was 0.15.

The data set is the same for the next values; noted with them: fraction bound to plasma protein; small molecule dataset, sheet 1-SM, Set Dtr; ref Ingle et al.; cited from earlier work.
As for `COc1c(Cl)ccc(Cl)c1C(=O)O` [Dicamba], the “PPB (fb)” value is 0.9.

With `Cc1onc(-c2c(Cl)cccc2Cl)c1C(=O)N[C@@H]1C(=O)N2[C@@H]1SC(C)(C)[C@@H]2C(=O)O` [Dicloxacillin], the “PPB (fb)” value is 0.96.

Take `O=c1[nH]cnc2c1ncn2[C@H]1CC[C@@H](CO)O1` [Didanosine]: the “PPB (fb)” value is 0.04.

Take `O=C(O)c1cc(-c2ccc(F)cc2F)ccc1O` [Diflunisal]: the “PPB (fb)” value is listed as 0.99.

For the molecule `CCC1CN2CCC1CC2[C@@H](O)c1ccnc2ccc(OC)cc12` (some centres unmarked) [Dihydroquinidine], the “PPB (fb)” value is listed as 0.78.

As for `COc1ccc([C@@H]2Sc3ccccc3N(CCN(C)C)C(=O)[C@@H]2OC(C)=O)cc1` [Diltiazem], the “PPB (fb)” value is recorded as 0.81.

Take `CC(C)N(CCC(C(N)=O)(c1ccccc1)c1ccccn1)C(C)C` (centres unmarked) [Disopyramide]: the “PPB (fb)” value is 0.87.

For `CN(CCOc1ccc(NS(C)(=O)=O)cc1)CCc1ccc(NS(C)(=O)=O)cc1` [Dofetilide], the “PPB (fb)” value is 0.64.

Take `O=c1[nH]c2ccccc2n1CCCN1CCC(n2c(=O)[nH]c3cc(Cl)ccc32)CC1` [Domperidone]: the “PPB (fb)” value is 0.92.

For `COc1cc2nc(N3CCN(C(=O)C4COc5ccccc5O4)CC3)nc(N)c2cc1OC` (centres unmarked) [Doxazosin], the “PPB (fb)” value is 0.97.

In the case of `CN(C)CCC=C1c2ccccc2COc2ccccc21` [Doxepin], the “PPB (fb)” value is 0.81.

As for `C[C@H]1O[C@@H](n2cc(F)c(=O)[nH]c2=O)[C@H](O)[C@@H]1O` [Doxifluridine], the “PPB (fb)” value is 0.39.

On to `COc1cccc2c1C(=O)c1c(O)c3c(c(O)c1C2=O)C[C@@](O)(C(=O)CO)C[C@@H]3O[C@H]1C[C@H](N)[C@H](O)[C@H](C)O1` [Doxorubicin], for which the “PPB (fb)” value is 0.73.

Consider `COc1ccc(C(=O)Nc2ccccc2CCC2CCCCN2C)cc1` (centres unmarked) [Encainide], for which the “PPB (fb)” value is on record as 0.72.

Take `CCn1cc(C(=O)O)c(=O)c2cc(F)c(N3CCNCC3)nc21` [Enoxacin]: the “PPB (fb)” value is on record as 0.26.

With `CCCn1c(=O)[nH]c(=O)c2[nH]cnc21` [Enprofylline], the “PPB (fb)” value is 0.45.

With `CCN(CC)C(=O)/C(C#N)=C/c1cc(O)c(O)c([N+](=O)[O-])c1` [Entacapone], the “PPB (fb)” value is 0.98.

For `COc1cccc2c1C(=O)c1c(O)c3c(c(O)c1C2=O)C[C@@](O)(C(=O)CO)C[C@@H]3O[C@H]1C[C@H](N)[C@@H](O)[C@H](C)O1` [Epirubicin], the “PPB (fb)” value is on record as 0.75.

On to `CC(C)(C)NC(=O)[C@H]1CC[C@H]2[C@@H]3CC=C4C=C(C(=O)O)CC[C@]4(C)[C@H]3CC[C@]12C` [Epristeride], for which the “PPB (fb)” value was 0.97.

For the molecule `C[C@@H](O)[C@H]1C(=O)N2C(C(=O)O)=C(S[C@@H]3CN[C@H](C(=O)Nc4cccc(C(=O)O)c4)C3)[C@H](C)[C@H]12` [Ertapenem], the “PPB (fb)” value is reported as 0.91.

Regarding `CC[C@H]1OC(=O)[C@H](C)[C@@H](O[C@H]2C[C@@](C)(OC)[C@@H](O)[C@H](C)O2)[C@H](C)[C@@H](O[C@@H]2O[C@H](C)C[C@H](N(C)C)[C@H]2O)[C@](C)(O)C[C@@H](C)C(=O)[C@H](C)[C@@H](O)[C@]1(C)O` [Erythromycin], the “PPB (fb)” value was 0.86.

With `COC(=O)CCc1ccc(OCC(O)CNC(C)C)cc1` (centres unmarked) [Esmolol], the “PPB (fb)” value is 0.48.

As for `C[C@]12CC[C@@H]3c4ccc(O)cc4CC[C@H]3[C@@H]1CC[C@@H]2O` [Estradiol], the “PPB (fb)” value is reported as 0.984.

As for `C#C[C@]1(O)CC[C@H]2[C@@H]3CCc4cc(O)ccc4[C@H]3CC[C@@]21C` [Ethinylestradiol], the “PPB (fb)” value is 0.97.

Take `Cc1ccc(-c2ncc(Cl)cc2-c2ccc(S(C)(=O)=O)cc2)cn1` [Etoricoxib]: the “PPB (fb)” value is recorded as 0.92.

In the case of `NC(N)=Nc1nc(CSCCC(N)=NS(N)(=O)=O)cs1` [Famotidine], the “PPB (fb)” value is 0.16.

For the molecule `CSc1ccc(C(=O)c2[nH]c(=O)[nH]c2C)cc1` [Fenoximone], the “PPB (fb)” value is recorded as 0.74.

As to `CN1CC[C@H](c2c(O)cc(O)c3c(=O)cc(-c4ccccc4Cl)oc23)[C@H](O)C1` [Flavopiridol], the “PPB (fb)” value is 0.94.

With `Cc1onc(-c2c(F)cccc2Cl)c1C(=O)N[C@@H]1C(=O)N2[C@@H]1SC(C)(C)[C@@H]2C(=O)O` [Flucloxacillin], the “PPB (fb)” value is 0.95.

In the case of `OC(Cn1cncn1)(Cn1cncn1)c1ccc(F)cc1F` [Fluconazole], the “PPB (fb)” value is recorded as 0.16.

In the case of `Nc1nc(F)nc2c1ncn2[C@@H]1O[C@H](CO)[C@@H](O)[C@@H]1O` [Fludarabine], the “PPB (fb)” value is given as 0.12.

As to `CCOC(=O)c1ncn2c1CN(C)C(=O)c1cc(F)ccc1-2` [Flumazenil], the “PPB (fb)” value is 0.46.

On to `O=c1[nH]cc(F)c(=O)[nH]1` [Fluorouracil], for which the “PPB (fb)” value is on record as 0.23.

As to `CCOC(=O)Nc1ccc(NCc2ccc(F)cc2)nc1N` [Flupirtine], the “PPB (fb)” value is reported as 0.82.

As to `CCC(=O)O[C@]1(C(=O)SCF)[C@H](C)C[C@H]2[C@@H]3C[C@H](F)C4=CC(=O)C=C[C@]4(C)[C@@]3(F)[C@@H](O)C[C@@]21C` [Fluticasone propionate], the “PPB (fb)” value is 0.89.

Regarding `CC(C)n1c(/C=C/C(O)CC(O)CC(=O)O)c(-c2ccc(F)cc2)c2ccccc21` (centres unmarked) [Fluvastatin], the “PPB (fb)” value is recorded as 0.99.

Turning to `O=C(O)P(=O)(O)O` [Foscarnet], the “PPB (fb)” value was 0.15.

Regarding `COCCNC(=O)CN(CCN(CCN(CC(=O)O)CC(=O)NCCOC)CC(=O)O)CC(=O)O` [Gadoversetamide], the “PPB (fb)” value is 0.

Take `Nc1nc(O)c2ncn(COC(CO)CO)c2n1` [Ganciclovir]: the “PPB (fb)” value is reported as 0.01.

For `COc1c(N2CCNC(C)C2)c(F)cc2c(=O)c(C(=O)O)cn(C3CC3)c12` (centres unmarked) [Gatifloxacin], the “PPB (fb)” value is reported as 0.2.

As for `Nc1ccn([C@@H]2O[C@H](CO)[C@@H](O)C2(F)F)c(=O)n1` [Gemcitabine], the “PPB (fb)” value is reported as 0.01.

For the molecule `C#C[C@]1(O)C=C[C@H]2[C@@H]3CCC4=CC(=O)CC[C@@H]4[C@H]3CC[C@@]21CC` [Gestodene], the “PPB (fb)” value is listed as 0.98.

As for `CCC1=C(C)CN(C(=O)NCCc2ccc(S(=O)(=O)NC(=O)N[C@H]3CC[C@H](C)CC3)cc2)C1=O` [Glimepiride], the “PPB (fb)” value was 0.99.

For the molecule `COc1ccc(Cl)cc1C(=O)NCCc1ccc(S(=O)(=O)NC(=O)NC2CCCCC2)cc1` [Glyburide], the “PPB (fb)” value was 0.98.

Staying with this data set, now noted: fraction bound to plasma protein; small molecule dataset, sheet 1-SM; ref Ingle et al.; cited from earlier work.
In the case of `CNCC[C@H](Oc1cccc2ccccc12)c1cccs1` [Duloxetine], the “PPB (fb)” value is 0.9.

As for `CC(/C=C1\SC(=S)N(CC(=O)O)C1=O)=C\c1ccccc1` [Epalrestat], the “PPB (fb)” value is 0.9.

With `O=C(OC1Cc2c(O)cc(O)cc2OC1c1cc(O)c(O)c(O)c1)c1cc(O)c(O)c(O)c1` (centres unmarked) [Epigallocatechin gallate], the “PPB (fb)” value is listed as 0.91.

With `O=C1[C@H](CC[C@H](O)c2ccc(F)cc2)[C@@H](c2ccc(O)cc2)N1c1ccc(F)cc1` [Ezetimibe], the “PPB (fb)” value was 0.9.

In the case of `Cn1cc(NC(=O)c2cc(NC(=O)c3cc(NC(=O)c4nsc(Cl)c4Cl)cn3C)cn2C)cc1C(=O)NCCC(=N)N` [GSQ1530], the “PPB (fb)” value is 0.89.

`CO/N=C1\CN(c2nc3c(cc2F)c(=O)c(C(=O)O)cn3C2CC2)CC1CN` (centres unmarked) [Gemifloxacin]: the “PPB (fb)” value is on record as 0.64.

The same data set, now with this note: plasma; cited from earlier work.
In the case of `C[C@]12CC[C@H](O)C[C@H]1CC[C@@H]1[C@@H]2CC[C@]2(C)[C@@H](C3=CC(=O)OC3)CC[C@]12O` [Digitoxigenin], the “PPB (fb)” value is 0.93.

For the molecule `COc1cc(CC2c3c(cc(OC)c(OC)c3OC)CC[N+]2(C)CCCOC(=O)CCC(=O)OCCC[N+]2(C)CCc3cc(OC)c(OC)c(OC)c3C2Cc2cc(OC)c(OC)c(OC)c2)cc(OC)c1OC` (centres unmarked) [Doxacurium], the “PPB (fb)” value is 0.39.

Consider `CC(=O)[C@H]1CC[C@H]2[C@@H]3CC[C@@H]4C[C@H](O)CC[C@]4(C)[C@H]3CC[C@]12C` [Eltanolone], for which the “PPB (fb)” value is given as 0.99.

For `CN1C[C@H](C(=O)N[C@]2(C)O[C@@]3(O)[C@@H]4CCCN4C(=O)[C@H](Cc4ccccc4)N3C2=O)C=C2c3cccc4[nH]cc(c34)C[C@H]21` [Ergotamine], the “PPB (fb)” value was 0.96.

As for `C#C[C@]1(O)CC[C@H]2[C@@H]3CCc4cc(OS(=O)(=O)O)ccc4[C@H]3CC[C@@]21C` [Ethinylestradiol-3-Sulfate], the “PPB (fb)” value was 0.99.

`CC(Cc1ccc(O)cc1)NCC(O)c1cc(O)cc(O)c1` (centres unmarked) [Fenoterol]: the “PPB (fb)” value was 0.47.

Take `CN1C(=O)CN=C(c2ccccc2F)c2cc([N+](=O)[O-])ccc21` [Flunitrazepam]: the “PPB (fb)” value is 0.81.

With `CNC(C)C1CCC(N)C(OC2C(N)CC(N)C(OC3OCC(C)(O)C(NC)C3O)C2O)O1` (centres unmarked) [Gentamicin], the “PPB (fb)” value was 0.1.
